In publication PMC8401465, “In Vitro Testing of Alternative Synthetic and Natural Antiparasitic Compounds against the Monogenean Sparicotyle chrysophrii” (Pathogens, 2021):
Like-named read-outs stand apart in the source and are kept apart here.

Assays:
[1] = system: Sparicotyle chrysophrii adults; test: microbe, parasite or virus in culture; details: for LC20 (95% CI), toxicity level for adult S. chrysophrii: 20% mortality; for LC50: read-out: LC50 (95% CI), toxicity level for adult S. chrysophrii; for LC80 (95% CI), toxicity level for adult S. chrysophrii: 80% mortality; for b (SE), slope of dose–response model / e (SE), midpoint of dose–response model: Weibull type 2, c = 0, d = 1, mortality at 4 h post-exposure; for fold less toxic for S. chrysophrii than eucalyptol and garlicin 80%: comparison with eucalyptol and garlicin 80%; for fold lower toxicity for S. chrysophrii than curcumin: comparison with curcumin
Protocol: Subsequently, the monogeneans (n = 6, in triplicate) were exposed to a range of seven concentrations tailored according to each compound’s activity observed in preliminary tests. The range for each compound was scaled down to an appropriate order of magnitude so that each compound reached 100% mortality at 4 h post-exposure (Table 1).
For the dose–response curve fitting, the drc package for R (v4.0.4) was used. An appropriate nonlinear regression model was selected between log-logistic and Weibull type models, based on the Akaike information criterion (AIC) and lack-of-fit test criteria through the use of mselect function. The best scoring model was Weibull type 2 model (asymmetrical) with lower and upper limits fixed to 0 and 1, respectively, as mortality in all assays reached 100%. […] Model parameters and estimated lethal doses (20%, 50%, and 80%) were calculated with standard errors and 95% confidence intervals, based on the delta method, respectively, and adjusted for simultaneous inference through multcomp package. Dose–response curves were visualised using ggplot2 library.

[2] = system: Vibrio harveyi; test: Bactericidal activity (MTT), Vibrio harveyi; assay type: cell-based; details: for antimicrobial activity against V. harveyi: p < 0.05
Protocol: (§1) Two bacterial fish pathogens, Vibrio harveyi and V. anguillarum were used to test the bactericidal activity of the target compounds, being previously isolated and identified as described in [65]. Lab strains were maintained at −20 °C in Tryptone Soy Broth (TSB, Difco Laboratories, Inc., Detroit, MI, USA) supplemented with 1% (w/v) NaCl (TSB1) and 50% (v/v) glycerol. […] Bacteria in TSB medium were then cultured at the same temperature with continuous shaking (100 rpm) for 24 h. Exponentially grown bacteria were resuspended in sterile PBS and adjusted to the concentration of 10^8 colony forming units (cfu)/mL. Each target compound (20 μL; concentrations 0.1, 1, and 10 µM) was added (in triplicates) to the wells of a flat-bottom 96-well plate, except for the positive control that consisted of 0.5% DMSO in PBS. Aliquots of 20 μL of the previously cultured bacteria were added, and the plate was incubated for 5 h at 25 °C. […] The plate was then centrifuged (4500 rpm, 10 min) and the precipitate dissolved in 200 μL of DMSO. The solution (100 μL) from each well was transferred to another flat-bottom 96-well plate. The absorbance of the dissolved formazan was measured at 570 nm. Bactericidal activity was expressed as percentage of nonviable bacteria, calculated as the difference between absorbance of surviving bacteria compared to the absorbance of bacteria in positive controls (100%).

[3] = system: Vibrio anguillarum; test: Bactericidal activity (MTT), Vibrio anguillarum; assay type: cell-based
Protocol: as §1

[4] = 50% mortality, 4 h post-exposure
[5] = 0.1 µM, 5 h at 25 °C, read-out: Bactericidal activity (%)
[6] = 1 µM, 5 h at 25 °C, read-out: Bactericidal activity (%)
[7] = 10 µM, 5 h at 25 °C, read-out: Bactericidal activity (%)

1R-Camphor
LC20 (95% CI), toxicity level for adult S. chrysophrii ([1]; 4 h post-exposure): 0.71 (0.53–0.89) mM
LC50 [1, 4]: 910 µM
LC80 (95% CI), toxicity level for adult S. chrysophrii ([1]; 4 h post-exposure): 1.1 (0.94–1.26) mM
b (SE), slope of dose–response model [1]: 4.54 (0.91)
e (SE), midpoint of dose–response model [1]: 0.99 (0.05)
fold less toxic for S. chrysophrii than eucalyptol and garlicin 80% [1]: approximately 1.2
inhibition [2, 5]: -23.6 ± 2.6%
inhibition [2, 6]: 7.7 ± 10.7%
inhibition [2, 7]: 9.3 ± 7.4%
inhibition [3, 5]: -38.8 ± 22%
inhibition [3, 6]: -27.8 ± 19%
inhibition [3, 7]: -17.4 ± 9.3%

CC(C)=C[C@@H]1[C@@H](C(=O)O)C1(C)C (relative stereo) [(+)-trans-Chrysanthemic acid]
LC20 (95% CI), toxicity level for adult S. chrysophrii ([1]; 4 h post-exposure): 0.58 (0.43–0.74) mM
LC50 [1, 4]: 840 µM
LC80 (95% CI), toxicity level for adult S. chrysophrii ([1]; 4 h post-exposure): 1.1 (0.79–1.41) mM
b (SE), slope of dose–response model [1]: 3.12 (0.69)
e (SE), midpoint of dose–response model [1]: 0.94 (0.07)
fold less toxic for S. chrysophrii than eucalyptol and garlicin 80% [1]: approximately 1.2
inhibition [2, 5]: -47.7 ± 5.9%
inhibition [2, 6]: -25.4 ± 14.6%
inhibition [2, 7]: 13.2 ± 6.5%
potency / effect against V. anguillarum as judged in the discussion [3]: the effect was observed only against V. anguillarum
inhibition [3, 5]: -1.4 ± 13%
inhibition [3, 6]: 8.15 ± 16.3%
inhibition [3, 7]: 32 ± 9%
antibacterial activity against V. anguillarum ([3]; among the natural compounds, p < 0.05): strongest antibacterial activity

Oc1c(Cl)cc(Cl)cc1Sc1cc(Cl)cc(Cl)c1O [Bithionate sodium, 2,2′-sulfanediylbis(4,6-dichlorophenolate), reference compound]
LC20 (95% CI), toxicity level for adult S. chrysophrii ([1]; 4 h post-exposure): 0.003 (0.002–0.005) mM
LC50 [1, 4]: 5 to 10 µM
LC80 (95% CI), toxicity level for adult S. chrysophrii ([1]; 4 h post-exposure): 0.01 (0.01–0.01) mM
b (SE), slope of dose–response model [1]: 1.93 (0.36)
e (SE), midpoint of dose–response model [1]: 0.01 (0.001)
inhibition [2, 5]: -8.8 ± 1.8%
inhibition [2, 6]: 3.5 ± 11.6%
inhibition [2, 7]: 40 ± 0.7%
bactericidal activity against V. harveyi ([2]; synthetic compounds, at increased concentrations): significant bactericidal activity
inhibition [3, 5]: 4.9 ± 11.8%
inhibition [3, 6]: 49.2 ± 11.6%
antimicrobial activity against V. anguillarum ([3]; 10 µM, p < 0.05): best antimicrobial activity
inhibition [3, 7]: 96.4 ± 1.7%

CC12CCC(CC1)C(C)(C)O2 [Eucalyptol]
LC20 (95% CI), toxicity level for adult S. chrysophrii ([1]; 4 h post-exposure): 0.5 (0.38–0.63) mM
LC80 (95% CI), toxicity level for adult S. chrysophrii ([1]; 4 h post-exposure): 0.83 (0.71–0.94) mM
LC50 ([1]; Sparicotyle chrysophryii, 4 h): 670 µM
b (SE), slope of dose–response model [1]: 3.99 (0.7)
e (SE), midpoint of dose–response model [1]: 0.74 (0.03)
fold lower toxicity for S. chrysophrii than curcumin [1]: approximately 3
potency / effect against V. harveyi as judged in the discussion [2]: highest anti-Vibrio harveyi effect among tested natural compounds
antimicrobial activity against V. harveyi ([2]; 10 µM): significant antimicrobial activity
inhibition at 0.1 µM ([2]; Vibrio harveyi, 0.1 µM, 5 h at 25 °C, read-out: Bactericidal activity (%)): -2.7 ± 8.7%
inhibition at 1 µM ([2]; Vibrio harveyi, 1 µM, 5 h at 25 °C, read-out: Bactericidal activity (%)): -1.9 ± 12.3%
inhibition at 10 µM ([2]; Vibrio harveyi, 10 µM, 5 h at 25 °C, read-out: Bactericidal activity (%)): 50.3 ± 6.8%
potency / effect against V. anguillarum as judged in the discussion [3]: ineffective against V. anguillarum
inhibition at 0.1 µM ([3]; Vibrio anguillarum, 0.1 µM, 5 h at 25 °C, read-out: Bactericidal activity (%)): -31.7 ± 156%
inhibition at 1 µM ([3]; Vibrio anguillarum, 1 µM, 5 h at 25 °C, read-out: Bactericidal activity (%)): -34.1 ± 10.5%
inhibition at 10 µM ([3]; Vibrio anguillarum, 10 µM, 5 h at 25 °C, read-out: Bactericidal activity (%)): 23.6 ± 3.1%

C=CCSSCC=C [Garlicin 80%]
LC20 (95% CI), toxicity level for adult S. chrysophrii ([1]; 4 h post-exposure): 0.4 (0.27–0.53) mM
LC50 [1, 4]: 600 µM
LC80 (95% CI), toxicity level for adult S. chrysophrii ([1]; 4 h post-exposure): 0.81 (0.66–0.95) mM
b (SE), slope of dose–response model [1]: 2.79 (0.49)
e (SE), midpoint of dose–response model [1]: 0.68 (0.04)
fold lower toxicity for S. chrysophrii than curcumin [1]: approximately 3
potency / effect against V. harveyi as judged in the discussion [2]: highest anti-Vibrio harveyi effect among tested natural compounds
inhibition [2, 5]: 20.9 ± 19.9%
inhibition [2, 6]: 28.7 ± 6.2%
antimicrobial activity against V. harveyi ([2]; 10 µM): significant antimicrobial activity
inhibition [2, 7]: 42 ± 1.3%
potency / effect against V. anguillarum as judged in the discussion [3]: ineffective against V. anguillarum
inhibition [3, 5]: -110 ± 84.2%
inhibition [3, 6]: -46 ± 17.2%
inhibition [3, 7]: -52.1 ± 31.4%
